# Experimental data taken from the supplement of paper PMC11208160.
# Experiment: recombinant UMI read abundance after kanamycin selection (control-corrected) (log10(CPM+1)); higher = more efficient recombination; extreme values may be limits of the assay; sequences stand for … in AGTGCAGAGAAAATCGGCCAGTTTTCTCTGCCTGCAGTCCGCATGCCGTGGGACCCCTTGGGTTCTAACCTGTTGCCTAGATTTATGCAGCGGACTGCCTTTCTCCCAAAGTGATAAACCGG…AGGTTGGTTTCACT; site = the 11-nt donor
# Outline: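 Two replicates each of selected and unselected plating were used in this pooled Escherichia coli screen of donor and donor-binding-loop pairs for the IS621 bridge recombinase. Selection was with IPTG (0.07 mM) and kanamycin. Counts of recombinant UMIs, amplified across the donor–target junction, were converted to CPM, averaged, scaled by control-derived factors and reported as log10(CPM+1).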
# 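Further: IS621 bridge recombinase in Escherichia coli cells against a fixed T5 target plasmid.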
row,Sequence,recombinant UMI read abundance (log10)
1,AGCTGGGCATGGACCGGTTTTCCCGGTAATCCGTATTTGTA (site AGCTGGGCTTA),2.76
2,AGCTTAGCATGGACCGGTTTTCCCGGTAATCCGTATTTGCC (site AGCTTAGCTGG),0
3,AGCTTCCCATGGACCGGTTTTCCCGGTAATCCGTATTTGTG (site AGATTCCCTCA),0.114
4,AGCTTCCCATGGACCGGTTTTCCCGGTAATCCGTATTTGTG (site AGCTTCCCTCA),0.00566
5,AGCTTCCCATGGACCGGTTTTCCCGGTAATCCGTATTTGTG (site AGGTTCCCTCA),0.00784
6,AGCTTCCCATGGACCGGTTTTCCCGGTAATCCGTATTTGTG (site AGTTTCCCTCA),0.0209
7,AGCTTTCCATGGACCGGTTTTCCCGGTAATCCGTATTTGGA (site AGCTTTCCTTC),0.00277
8,AGGAAAACATGGACCGGTTTTCCCGGTAATCCGTATTTGCA (site AGGAAAACTTG),0.959
9,AGGAAAACATGGACCGGTTTTCCCGGTAATCCGTATTTGCA (site AGGAACACTTG),0
10,AGGAAAACATGGACCGGTTTTCCCGGTAATCCGTATTTGCA (site AGGAAGACTTG),0
11,AGGAAAACATGGACCGGTTTTCCCGGTAATCCGTATTTGCA (site AGGAATACTTG),0
12,AGGAAAACATGGACCGGTTTTCCCGGTAATCCGTATTTGTA (site AGGAAAACTTA),1.92
13,AGGAAAACATGGACCGGTTTTCCCGGTAATCCGTATTTGTA (site AGGAAGACTTG),0
14,AGGAACACATGGACCGGTTTTCCCGGTAATCCGTATTTGCA (site AGGAAAACTTG),0
15,AGGAACACATGGACCGGTTTTCCCGGTAATCCGTATTTGCA (site AGGAACACTTG),2.52
16,AGGAACACATGGACCGGTTTTCCCGGTAATCCGTATTTGCA (site AGGAAGACTTG),0
17,AGGAACACATGGACCGGTTTTCCCGGTAATCCGTATTTGCA (site AGGAATACTTG),0.211
18,AGGAAGGCATGGACCGGTTTTCCCGGTAATCCGTATTTGCT (site AGAAAGGCTAG),2.69
19,AGGAAGGCATGGACCGGTTTTCCCGGTAATCCGTATTTGCT (site AGCAAGGCTAG),0.362
20,AGGAAGGCATGGACCGGTTTTCCCGGTAATCCGTATTTGCT (site AGGAAGACTTG),0.296
21,AGGAAGGCATGGACCGGTTTTCCCGGTAATCCGTATTTGCT (site AGGAAGGCTAG),2.27
22,AGGAAGGCATGGACCGGTTTTCCCGGTAATCCGTATTTGCT (site AGTAAGGCTAG),1.3
23,AGGAAGGCATGGACCGGTTTTCCCGGTAATCCGTATTTGGA (site AGGAAGACTTG),0.224
24,AGGAAGGCATGGACCGGTTTTCCCGGTAATCCGTATTTGGA (site AGGAAGGCTTC),1.73
25,AGGAAGTCATGGACCGGTTTTCCCGGTAATCCGTATTTGCA (site AGGAAGACTTG),0.839
26,AGGAAGTCATGGACCGGTTTTCCCGGTAATCCGTATTTGCA (site AGGAAGCCTTG),0.641

row,Sequence,recombinant UMI read abundance (log10)
1,AGGAAGTCATGGACCGGTTTTCCCGGTAATCCGTATTTGCA (site AGGAAGGCTTG),0
2,AGGAAGTCATGGACCGGTTTTCCCGGTAATCCGTATTTGCA (site AGGAAGTCTTG),3.29
3,AGGAAGTCATGGACCGGTTTTCCCGGTAATCCGTATTTGTC (site AGGAAGTCTGA),3.14
4,AGGAATTCATGGACCGGTTTTCCCGGTAATCCGTATTTGTT (site AGGAATTCTAA),2.16
5,AGGAATTCATGGACCGGTTTTCCCGGTAATCCGTATTTGTT (site CGGAATCCTAA),0
6,AGGACGACATGGACCGGTTTTCCCGGTAATCCGTATTTGCA (site AGGAAGACTTG),0.601
7,AGGACGACATGGACCGGTTTTCCCGGTAATCCGTATTTGCA (site AGGACGACTTG),2.51
8,AGGACGACATGGACCGGTTTTCCCGGTAATCCGTATTTGCA (site AGGAGGACTTG),1.38
9,AGGACGACATGGACCGGTTTTCCCGGTAATCCGTATTTGCA (site AGGATGACTTG),0.853
10,AGGACGACATGGACCGGTTTTCCCGGTAATCCGTATTTGGA (site AGGAAGACTTG),0
11,AGGACGACATGGACCGGTTTTCCCGGTAATCCGTATTTGGA (site AGGACGACTTC),0.813
12,AGGACTACATGGACCGGTTTTCCCGGTAATCCGTATTTGGC (site AGGACTACTGA),0
13,AGGACTACATGGACCGGTTTTCCCGGTAATCCGTATTTGGC (site AGGACTACTGC),2.95
14,AGGACTACATGGACCGGTTTTCCCGGTAATCCGTATTTGGC (site AGGACTACTGG),0
15,AGGACTACATGGACCGGTTTTCCCGGTAATCCGTATTTGGC (site AGGACTACTGT),1.61
16,AGGACTTCATGGACCGGTTTTCCCGGTAATCCGTATTTGAC (site AGGACTACTGT),0
17,AGGACTTCATGGACCGGTTTTCCCGGTAATCCGTATTTGAC (site AGGACTCCTGT),0.509
18,AGGACTTCATGGACCGGTTTTCCCGGTAATCCGTATTTGAC (site AGGACTGCTGT),0
19,AGGACTTCATGGACCGGTTTTCCCGGTAATCCGTATTTGAC (site AGGACTTCTGT),2.76
20,AGGAGGACATGGACCGGTTTTCCCGGTAATCCGTATTTGAA (site AGGAAGACTTG),0
21,AGGAGGACATGGACCGGTTTTCCCGGTAATCCGTATTTGAA (site AGGAGGACTTT),2.19
22,AGGAGGACATGGACCGGTTTTCCCGGTAATCCGTATTTGCC (site AGGAAGACTTG),0
23,AGGAGGACATGGACCGGTTTTCCCGGTAATCCGTATTTGCC (site AGGAGGACTGG),1.68
24,AGGATGACATGGACCGGTTTTCCCGGTAATCCGTATTTGCG (site AGGAAGACTTG),0
25,AGGATGACATGGACCGGTTTTCCCGGTAATCCGTATTTGCG (site AGGATGACTCG),2.3
26,AGGCACGCATGGACCGGTTTTCCCGGTAATCCGTATTTGGG (site AAGCACGCTCC),0.371
